Patent US11208387B2, “Macrocyclic broad spectrum antibiotics” (Genentech, Inc., priority 2019, dated 2021)
Values after ≈ are worked out from the molar mass of the structure shown. Read-outs that look alike come from different tables or passages of the source.

Key:
[1] = tested on: isolated liver mitochondria; assay: Mitochondrial oxygen consumption rate (OCR) assay; assay type: biochemical, Sprague-Dawley rats; conditions: isolated rat liver mitochondria, state 3 (S3) respiration, glutamate/malate; Table 3
Outline: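 Liver mitochondria from male Sprague-Dawley rats preincubated with compounds 1 h on ice (1% DMSO, pH 7.4 buffer), then given glutamate/malate with TTFA (plus ADP for state 3) and phosphorescent O2 probe. Oxygen consumption read 30 min at 30 °C. IC50 (50 μg protein, S3) or UC50 (100 μg, S2) derived from AUC.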

[2] = tested on: Pseudomonas aeruginosa PA01; assay: Serum MIC, broth micro-dilution; assay type: cell-based; conditions: Pseudomonas aeruginosa, read-out: P. aeruginosa 01 Serum MIC
Outline: (§1)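 Plates held at 35 °C for 22 h after adding bacteria to a final OD600 of 0.0005. Medium was a 1:1 mix of mouse serum and cation-adjusted Mueller Hinton II broth. Ten two-fold compound dilutions began at 64, 4, 0.5 or 0.13 μg/mL, per CLSI microdilution.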

[3] = tested on: Klebsiella pneumoniae ATCC 700603; assay: Serum MIC, broth micro-dilution; assay type: cell-based; conditions: Klebsiella pneumoniae, read-out: K pneumoniae 700603 Serum MIC
Outline: as §1

[4] = tested on: Acinetobacter baumannii ATCC 17978; assay: Serum MIC, broth micro-dilution; assay type: cell-based; conditions: Acinetobacter baumannii
Outline: as §1

[5] = tested on: Escherichia coli strain ATCC 25922; assay: Serum MIC, broth micro-dilution; assay type: cell-based; conditions: Escherichia coli, read-out: E. coli 25922 Serum MIC
Outline: as §1

[6] = ATCC17978, 22 h, read-out: A. baumanii 17978 Serum MIC
[7] = ATCC17978, 22 h, read-out: Acinetobacter baumanii 17978 Serum MIC
[8] = PA01, 50% v/v mouse serum in Mueller Hinton II cation adjusted Broth, 35° C., 22 hours, Table 4
[9] = ATCC700603, 50% v/v mouse serum in Mueller Hinton II cation adjusted Broth, 35° C., 22 hours, Table 4
[10] = ATCC17978, 50% v/v mouse serum in Mueller Hinton II cation adjusted Broth, 35° C., 22 hours, Table 4, read-out: A. baumanii 17978 Serum MIC
[11] = ATCC17978, 50% v/v mouse serum in Mueller Hinton II cation adjusted Broth, 35° C., 22 hours, Table 5, read-out: Acinetobacter baumanii 17978 Serum MIC
[12] = ATCC25922, 50% v/v mouse serum in Mueller Hinton II cation adjusted Broth, 35° C., 22 hours, Table 4

| IC50 [1] [µM] | MIC [2, 8] [µM] | MIC [3, 9] [µM] | MIC [4, 10] [µM] | MIC [4, 11] [µM] | MIC [5, 12] [µM] | Compound | MIC ([2]; PA01, 22 h) [µM] | MIC ([3]; ATCC700603, 22 h) [µM] | MIC [4, 6] [µM] | MIC [4, 7] [µM] | MIC ([5]; ATCC25922, 22 h) [µM] |
| --- | --- | --- | --- | --- | --- | --- | --- | --- | --- | --- | --- |
| 261 | 3.3 (≈ 3.33 µg/mL) | 0.5 (≈ 0.504 µg/mL) | 11 (≈ 11.1 µg/mL) | 11 (≈ 11.1 µg/mL) | 0.5 (≈ 0.504 µg/mL) | Cc1nc(-c2ccc(C(C)(C)C)cc2)nc(N)c1C(=O)N[C@@H](CNS(N)(=O)=O)C(=O)N(C)[C@@H]1C(=O)N[C@@H](C)C(=O)N[C@H](C(=O)O)Cc2ccc(OC[C@H](O)CN)c(c2)-c2cc1cc(OC[C@H](O)CN)c2O [Example 2, (8S,11S,14S)-18-hydroxy-11-methyl-14-[methyl-[(2S)-2-[[4-amino-2-(4-tert-butylphenyl)-6-methyl-pyrimidine-5-carbonyl]amino]-3-(sulfamoylamino)-propanoyl]amino]-10,13-dioxo-3,17-bis[(2R)-3-amino-2-hydroxy-propoxy]-9,12-diazatricyclo-[13.3.1.12,6]icosa-1(18),2(20),3,5,15(19), 16-hexaene-8-carboxylic acid] | – | – | – | – | – |
| > 250 | 4.3 (≈ 4.33 µg/mL) | 0.46 (≈ 0.463 µg/mL) | 9.3 (≈ 9.37 µg/mL) | 9.3 (≈ 9.37 µg/mL) | 0.42 (≈ 0.423 µg/mL) | Cc1nc(-c2ccc(C(C)(C)C)cc2)nc(C)c1C(=O)N[C@@H](CNS(N)(=O)=O)C(=O)N(C)[C@@H]1C(=O)N[C@@H](C)C(=O)N[C@H](C(=O)O)Cc2ccc(OC[C@H](O)CN)c(c2)-c2cc1cc(OC[C@H](O)CN)c2O [Example 7, (8S,11S,14S)-18-hydroxy-11-methyl-14-[methyl-[(2S)-2-[[2-(4-tert-butyl-phenyl)-4,6-dimethyl-pyrimidine-5-carbonyl]amino]-3-(sulfamoylamino)-propanoyl]amino]-10,13-dioxo-3,17-bis[(2R)-3-amino-2-hydroxy-propoxy]-9,12-diazatricyclo-[13.3.1.12,6]icosa-1(18),2(20),3,5,15(19), 16-hexaene-8-carboxylic acid] | – | – | – | – | – |
| 44 | 4 (≈ 4.1 µg/mL) | 0.5 (≈ 0.512 µg/mL) | 8 (≈ 8.19 µg/mL) | 8 (≈ 8.19 µg/mL) | 0.5 (≈ 0.512 µg/mL) | Cc1nc(-c2ccc(C(C)(C)C)cc2O)nc(N)c1C(=O)N[C@@H](CNS(N)(=O)=O)C(=O)N(C)[C@@H]1C(=O)N[C@@H](C)C(=O)N[C@H](C(=O)O)Cc2ccc(OC[C@H](O)CN)c(c2)-c2cc1cc(OC[C@H](O)CN)c2O [Example 44, (8S,11S,14S)-14-[[(2S)-2-[[4-amino-2-(4-tert-butyl-2-hydroxy-phenyl)-6-methyl-pyrimidine-5-carbonyl]amino]-3-(sulfamoylamino)-propanoyl]-methyl-amino]-3,17-bis[(2R)-3-amino-2-hydroxy-propoxy]-18-hydroxy-11-methyl-10,13-dioxo-9,12-diazatricyclo-[13.3.1.12,6]icosa-1(18),2(20),3,5,15(19), 16-hexaene-8-carboxylic acid] | – | – | – | – | – |
| > 250 | 16 (≈ 14.8 µg/mL) | 0.75 (≈ 0.696 µg/mL) | 32 (≈ 29.7 µg/mL) | 32 (≈ 29.7 µg/mL) | 1 (≈ 0.928 µg/mL) | Cc1nc(-c2ccc(C(C)(C)C)cc2)nc(C)c1C(=O)N[C@@H](CN)C(=O)N(C)[C@@H]1C(=O)N[C@@H](C)C(=O)N[C@H](C(=O)O)Cc2ccc(OC[C@H](O)CN)c(c2)-c2cc1cc(OC[C@H](O)CN)c2O [Example 30, (8S,11S,14S)-18-hydroxy-11-methyl-14-[methyl-[(2S)-3-amino-2-[[2-(4-tert-butylphenyl)-4,6-dimethyl-pyrimidine-5-carbonyl]amino]-propanoyl]amino]-10,13-dioxo-3,17-bis[(2R)-3-amino-2-hydroxy-propoxy]-9,12-diazatricyclo-[13.3.1.12,6]icosa-1(18),2(20),3,5,15(19), 16-hexaene-8-carboxylic acid] | – | – | – | – | – |
| 69 | 6 (≈ 6.12 µg/mL) | 0.75 (≈ 0.765 µg/mL) | 12 (≈ 12.2 µg/mL) | 12 (≈ 12.2 µg/mL) | 0.75 (≈ 0.765 µg/mL) | Cc1nc(-c2ccc3c(c2)CCC3(C)C)nc(N)c1C(=O)N[C@@H](CNS(N)(=O)=O)C(=O)N(C)[C@@H]1C(=O)N[C@@H](C)C(=O)N[C@H](C(=O)O)Cc2ccc(OC[C@H](O)CN)c(c2)-c2cc1cc(OC[C@H](O)CN)c2O [Example 66, (8S,11S,14S)-14-[[(2S)-2-[[4-amino-2-(1,1-dimethylindan-5-yl)-6-methyl-pyrimidine-5-carbonyl]-amino]-3-(sulfamoyl-amino)propanoyl]-methyl-amino]-3,17-bis[(2R)-3-amino-2-hydroxy-propoxy]-18-hydroxy-11-methyl-10,13-dioxo-9,12-diazatricyclo-[13.3.1.12,6]icosa-1(18),2(20),3,5,15(19), 16-hexaene-8-carboxylic acid] | – | – | – | – | – |

| Compound | IC50 [1] [µM] | MIC [2, 8] [µM] | MIC [3, 9] [µM] | MIC [4, 10] [µM] | MIC [4, 11] [µM] | MIC [5, 12] [µM] | MIC ([2]; PA01, 22 h) [µM] | MIC ([3]; ATCC700603, 22 h) [µM] | MIC [4, 6] [µM] | MIC [4, 7] [µM] | MIC ([5]; ATCC25922, 22 h) [µM] |
| --- | --- | --- | --- | --- | --- | --- | --- | --- | --- | --- | --- |
| Cc1nc(-c2ccc(OCCC(C)(C)C)cc2)nc(N)c1C(=O)N[C@@H](CCN)C(=O)N(C)[C@@H]1C(=O)N[C@@H](C)C(=O)N[C@H](C(=O)O)Cc2ccc(OC[C@H](O)CN)c(c2)-c2cc1cc(OC[C@H](O)CN)c2O [Example 18, (8S,11S,14S)-18-hydroxy-11-methyl-14-[methyl-[(2S)-4-amino-2-[[4-amino-2-[4-(3,3-dimethyl-butoxy)phenyl]-6-methyl-pyrimidine-5-carbonyl]amino]-butanoyl]amino]-10,13-dioxo-3,17-bis[(2R)-3-amino-2-hydroxy-propoxy]-9,12-diazatricyclo-[13.3.1.12,6]icosa-1(18),2(20),3,5,15(19), 16-hexaene-8-carboxylic acid] | 119 | – | – | – | – | – | 4 (≈ 3.95 µg/mL) | 0.25 (≈ 0.247 µg/mL) | 8 (≈ 7.9 µg/mL) | 8 (≈ 7.9 µg/mL) | 0.25 (≈ 0.247 µg/mL) |
| Cc1nc(-c2ccc(OCCC(C)(C)C)cc2)ncc1C(=O)N[C@@H](CNS(N)(=O)=O)C(=O)N(C)[C@@H]1C(=O)N[C@@H](C)C(=O)N[C@H](C(=O)O)Cc2ccc(OC[C@H](O)CN)c(c2)-c2cc1cc(OC[C@H](O)CN)c2O [Example 16, (8S,11S,14S)-18-hydroxy-11-methyl-14-[methyl-[(2S)-2-[[2-[4-(3,3-dimethyl-butoxy)phenyl]-4-methyl-pyrimidine-5-carbonyl]amino]-3-(sulfamoylamino)-propanoyl]amino]-10,13-dioxo-3,17-bis[(2R)-3-amino-2-hydroxy-propoxy]-9,12-diazatricyclo-[13.3.1.12,6]icosa-1(18),2(20),3,5,15(19), 16-hexaene-8-carboxylic acid] | 33 | – | – | – | – | – | 6 (≈ 6.22 µg/mL) | 0.63 (≈ 0.653 µg/mL) | 12 (≈ 12.4 µg/mL) | 12 (≈ 12.4 µg/mL) | 0.44 (≈ 0.456 µg/mL) |
